From patent publication US20250092065A1, “2-(INDAZOL-5-YL)-6-(PIPERIDIN-4-YL)-1,7-NAPHTHYRIDINE DERIVATIVES AND RELATED COMPOUNDS AS MODULATORS FOR SPLICING NUCLEIC ACIDS AND FOR THE TREATMENT OF PROLIFERATIVE DISEASES” (REMIX THERAPEUTICS INC., priority 2022, published 2025) come the findings set out here.

The term IC50 denotes the concentration that gives 50% inhibition. The term AC50 denotes the concentration giving half of the maximal activity seen.

The subject of series [1] is HTT. In words: HiBiT protein abundance assay, HTT (K562 HiBiT knock-in). To be noted: HiBiT knock-in K562 cells, 24 hours, top dose 10 μM. Type of series: cell-based, human. The gist of the method:
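K562 HiBiT knock-in, 24 h, 37 °C, top 10 μM final, 3-fold ×10, DMSO ≤0.25%. Lytic HiBiT luminescence; PC = parental K562, NC = DMSO; 4PL IC50.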

The test system of series [2] is MYB mRNA. In words: RT-qPCR splicing assay, MYB mRNA canonical (CJ) and alternative (AJ) junction. It counts as cell-based, human. Particulars: Homo sapiens. The procedure, abridged: (§1)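 Canonical and alternative-exon junction isoforms were quantified by RT-qPCR in cell lysates, with ΔCt against a housekeeper (GAPDH/GUSB/PPIA), then ΔΔCt vs DMSO, converted to 2^(−ΔΔCt) and percent response. K562 or A673 cells were exposed for 24 h to 11 concentrations (3-fold, top final 10 uM).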
A general note: Real-time PCR tracks product formation cycle by cycle.

Series [3] relates to K562 cells. In words: Cell Titer Glo 2.0 cell viability (toxicity) assay, K562. Particulars: 500 cells/well, 72 hours.
The subject of series [4] is Target C. In words: HiBiT protein abundance assay, Target C (K562 HiBiT knock-in). To be noted: HiBiT knock-in K562 cells, 24 hours, top dose 10 μM. It counts as cell-based, human. The gist of the method:
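K562 HiBiT knock-in cells (10000/well) were treated 24 h at 37° C with a 10-point 3-fold dilution series (top 10 μM final, ≤0.25% DMSO). HiBiT luminescence was read after lytic LgBiT detection. Percent response used unmodified K562 and DMSO-treated knock-in controls, and IC50 came from a four-parameter fit at 50% of untreated.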

The subject of series [5] is SMN2 mRNA. In words: RT-qPCR splicing assay, SMN2 mRNA. Particulars: Homo sapiens, canonical junction qPCR panel, Table 4; read-out: SMN2 IC50 (decrease in CJ mRNA levels). It counts as cell-based, human. The procedure, abridged: as §1
Where [6] appears, read: RT-qPCR, MYB alternative junction mRNA increase, read-out: MYB AJ (increase in alternative junction mRNA, AC50).
Where [7] appears, read: RT-qPCR, MYB canonical junction mRNA decrease, read-out: MYB CJ (decrease in canonical junction mRNA, IC50).
The mark [8] stands for this setting: canonical junction qPCR panel, Table 4, read-out: MYB IC50 (decrease in CJ mRNA levels).
[9] abbreviates: MYB alternative junction mRNA, RT-qPCR, read-out: MYB AJ (increase in AJ mRNA, AC50).
Setting [10] is: MYB canonical junction mRNA, RT-qPCR, read-out: MYB CJ (decrease in CJ mRNA levels, IC50).

Like-named read-outs stand apart in the source and are kept apart here.

Turning to `C[C@H]1CN(c2cc(F)c3nc(-c4cc(F)c5nn(C)cc5c4)ccc3c2)C[C@H](C)N1` (single isomer, unassigned) [Compound 760], the IC50 was 100 to 1000 nM in series [1], less than 100 nM in series [2] (setting [7]), less than 100 nM in series [2] (setting [8]) and 100 to 1000 nM in series [4]. In addition, in series [2] (setting [6]), the concentration at half-maximal activity (AC50) was in the range of 100 to 1000 nM. Also, in series [3], the “Effect of Exemplary Compounds on Cell Viability, K562” value (from here on “Effect of Exemplary Compounds”) was “B (B represents 100-1000 nM)”.

Consider `C[C@H]1CN(c2cc(F)c3nc(-c4cc5cn(C)nc5cc4O)ccc3c2)C[C@H](C)N1` (single isomer, unassigned) [Compound 770], for which the IC50 in series [1] was less than 100 nM; in series [2] (setting [7]), less than 100 nM; in series [2] (setting [8]), less than 100 nM; in series [4], 100 to 1000 nM. Also, in series [2] (setting [6]), the AC50 is less than 100 nM. In addition, the “Effect of Exemplary Compounds” value in series [3] is reported as “B (B represents 100-1000 nM)”.

Turning to `Cc1cn2nc(-c3ccc4cc(N5C[C@H](C)N[C@@H](C)C5)cc(F)c4n3)cc(C)c2n1` (single isomer, unassigned) [Compound 799], the IC50 in series [1] was 100 to 1000 nM; in series [2] (setting [7]), less than 100 nM; in series [2] (setting [8]) it was less than 100 nM; in series [4] it was 100 to 1000 nM. In addition, the AC50 in series [2] (setting [6]) lay within 100 to 1000 nM. In addition, the “Effect of Exemplary Compounds” value in series [3] is listed as “B (B represents 100-1000 nM)”.

In the case of `Cc1c(O)c(-c2ccc3cc(N4C[C@H](C)N[C@@H](C)C4)cc(F)c3n2)cc2cn(C)nc12` (single isomer, unassigned) [Compound 800, 2,2,2-trifluoroacetate], the IC50 in series [1], in series [2] (setting [7]), in series [2] (setting [8]) and in series [4] was less than 100 nM throughout. In addition, in series [2] (setting [6]), the AC50 was less than 100 nM. Moreover, in series [3], the “Effect of Exemplary Compounds” value is “A (A represents <100 nM)”.

Turning to `Cc1nc(-c2cc3cn(C)nc3cc2O)nc2ccc(N3C[C@H](C)N[C@@H](C)C3)cc12` (single isomer, unassigned) [Compound 806], the IC50 was 100 to 1000 nM in series [1], less than 100 nM in series [2] (setting [7]), less than 100 nM in series [2] (setting [8]) and 1000 to 10000 nM in series [4]. In addition, in series [2] (setting [6]), the AC50 lay in the range of 100 to 1000 nM. The “Effect of Exemplary Compounds” value in series [3] is “B (B represents 100-1000 nM)”.

With `Cc1nc(-c2cc3cn(C)nc3c(C)c2O)nc2ccc(N3C[C@H](C)N[C@@H](C)C3)cc12` (single isomer, unassigned) [Compound 807], the IC50 in series [1] is 100 to 1000 nM; in series [2] (setting [7]), less than 100 nM; in series [2] (setting [8]), less than 100 nM; in series [4] it was more than 10000 nM. Moreover, the AC50 in series [2] (setting [6]) was less than 100 nM. The “Effect of Exemplary Compounds” value in series [3] was “B (B represents 100-1000 nM)”.

`Cn1cc2cc(-c3cc4ccc(C5CCNCC5)nc4cn3)c(O)cc2n1` [Compound 104]: the IC50 in series [1] was 1000 to 10000 nM; in series [5], 100 to 1000 nM; in series [2] (setting [10]), 1000 to 10000 nM; in series [2] (setting [8]) it was 1000 to 10000 nM; in series [4], 1000 to 10000 nM. In addition, the AC50 in series [2] (setting [9]) was 1000 to 10000 nM. Further, in series [3], the “Effect of Exemplary Compounds” value is given as “C (C represents 1000-9999 nM)”.

Consider `Cn1cc2cc(-c3ccc4nc(N5CC[C@H](NC6CCC6)C5)ccc4n3)c(O)cc2n1` [Compound 156], for which the IC50 in series [1], in series [5], in series [2] (setting [10]), in series [2] (setting [8]) and in series [4] was less than 100 nM in each case. The AC50 in series [2] (setting [9]) was less than 100 nM. The “Effect of Exemplary Compounds” value in series [3] was “B (B represents 100-1000 nM)”.

With `CC(C)N[C@H]1CCN(c2ccc3nc(-c4cc5cn(C)nc5cc4O)ccc3n2)C1` [Compound 171], the IC50 in series [1], in series [5], in series [2] (setting [10]), in series [2] (setting [8]) and in series [4] was less than 100 nM each time. Also, in series [2] (setting [9]), the AC50 was less than 100 nM. In series [3], the “Effect of Exemplary Compounds” value was “B (B represents 100-1000 nM)”.

On to `Cc1cn2nc(-c3ccc4nc(N5CCC(NC(C)(C)C)C5)ccc4n3)cc(C)c2n1` (stereo not shown) [Compound 186], for which the IC50 was less than 100 nM in series [1]; less than 100 nM in series [5]; 100 to 1000 nM in series [2] (setting [10]); 100 to 1000 nM in series [2] (setting [8]); less than 100 nM in series [4]. For the same compound, the AC50 in series [2] (setting [9]) is less than 100 nM. Further, in series [3], the “Effect of Exemplary Compounds” value is “B (B represents 100-1000 nM)”.

Regarding `Cn1cc2cc(-c3ccc4nc(N5CC[C@H](NCC6CC6)C5)ccc4n3)c(O)cc2n1` [Compound 194], the IC50 in series [1], in series [5], in series [2] (setting [10]), in series [2] (setting [8]) and in series [4] was less than 100 nM throughout. Also, in series [2] (setting [9]), the AC50 was less than 100 nM. In addition, the “Effect of Exemplary Compounds” value in series [3] was “B (B represents 100-1000 nM)”.

With `CN(C)C1CCN(c2ccc3nc(-c4cc5cn(C)nc5c(F)c4O)ncc3c2)CC1` [Compound 757, 5-{6-[4-(dimethylamino)piperidin-1-yl]quinazolin-2-yl}-7-fluoro-2-methylindazol-6-ol], the IC50 in series [1] was 1000 to 10000 nM; in series [5], less than 100 nM; in series [2] (setting [7]), less than 100 nM; in series [2] (setting [8]) it was less than 100 nM; in series [4], 1000 to 10000 nM. Also, in series [2] (setting [6]), the AC50 lay in the range of 100 to 1000 nM. In series [3], the “Effect of Exemplary Compounds” value is reported as “A (A represents <100 nM)”.

In the case of `C[C@@H]1CN(c2cc(F)c3nc(-c4cc(F)c5nn(C)cc5c4)ccc3c2)C[C@H](C)N1` [Compound 758, 6-[(3R,5S)-3,5-dimethylpiperazin-1-yl]-8-fluoro-2-(7-fluoro-2-methylindazol-5-yl)quinoline], the IC50 in series [1] is 100 to 1000 nM; in series [5], less than 100 nM; in series [2] (setting [7]), 100 to 1000 nM; in series [2] (setting [8]), 100 to 1000 nM; in series [4] it was 100 to 1000 nM. The AC50 in series [2] (setting [6]) fell in the range of 100 to 1000 nM. Moreover, in series [3], the “Effect of Exemplary Compounds” value is listed as “B (B represents 100-1000 nM)”.

For the compound `Cc1c(O)c(-c2nc(C(N)=O)c3cc(N4C[C@H](C)N[C@@H](C)C4)ccc3n2)cc2cn(C)nc12` [Compound 796], the IC50 was 100 to 1000 nM in series [1], less than 100 nM in series [2] (setting [7]), less than 100 nM in series [2] (setting [8]) and 100 to 1000 nM in series [4]. Besides, the AC50 in series [2] (setting [6]) was less than 100 nM. Besides, the “Effect of Exemplary Compounds” value in series [3] is “A (A represents <100 nM)”.

Take `C[C@H]1CN(c2ccc3nc(-c4cc5cn(C)nc5cc4O)nc(C(N)=O)c3c2)C[C@H](C)N1` [Compound 797]: the IC50 in series [1] is 100 to 1000 nM; in series [2] (setting [7]), less than 100 nM; in series [2] (setting [8]) it was less than 100 nM; in series [4] it was 1000 to 10000 nM. The AC50 in series [2] (setting [6]) is less than 100 nM. Also, the “Effect of Exemplary Compounds” value in series [3] is “A (A represents <100 nM)”.

For `Cc1c(O)c(-c2ccc3cc(N4CCNC5(CC5)C4)cc(F)c3n2)cc2cn(C)nc12` [Compound 805, 5-(6-{4,7-diazaspiro[2.5]octan-7-yl}-8-fluoroquinolin-2-yl)-2,7-dimethylindazol-6-ol], the IC50 in series [1] is less than 100 nM; in series [2] (setting [7]), less than 100 nM; in series [2] (setting [8]), less than 100 nM; in series [4] it was 100 to 1000 nM. In addition, in series [2] (setting [6]), the AC50 is less than 100 nM. Further, in series [3], the “Effect of Exemplary Compounds” value is listed as “B (B represents 100-1000 nM)”.
